Reference: patent US8420851B2, “Selective TR-β 1 agonist” (Cadila Healthcare Limited, priority 2006, dated 2013)

Columns and labels:
[1] = molecular target: T1, TR-α (Homo sapiens, UniProt P10827); assay: In vitro TR-α activity (in-house protocol); assay type: cell-based
T1 sequence (P10827 1-410 isoform P10827-2): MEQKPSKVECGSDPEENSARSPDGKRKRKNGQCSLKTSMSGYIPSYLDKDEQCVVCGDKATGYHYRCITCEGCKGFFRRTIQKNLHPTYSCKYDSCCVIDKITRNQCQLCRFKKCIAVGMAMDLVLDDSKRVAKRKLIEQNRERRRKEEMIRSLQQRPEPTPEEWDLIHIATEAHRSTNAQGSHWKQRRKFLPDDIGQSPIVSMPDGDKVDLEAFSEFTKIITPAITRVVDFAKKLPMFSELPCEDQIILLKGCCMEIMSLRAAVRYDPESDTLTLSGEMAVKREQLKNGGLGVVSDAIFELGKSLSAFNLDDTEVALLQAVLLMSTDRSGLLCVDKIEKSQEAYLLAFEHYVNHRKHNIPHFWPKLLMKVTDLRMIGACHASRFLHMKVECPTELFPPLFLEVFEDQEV
Protocol: (§1) Invitro TR-α & TR-β activities were determined as per in-house protocols and the results of representative compounds are provided in tables 1 & 2 below as a proof of the efficacies of the novel class of compounds disclosed above.

[2] = molecular target: T2, TR-β (Homo sapiens, UniProt P10828); assay: In vitro TR-β activity (in-house protocol); assay type: cell-based; settings: for fold induction at 0.001 µM: Conc. 1 nM; for fold induction at 0.001 µM / fold induction at 0.01 µM / fold induction at 0.1 µM / fold induction at 1 µM: read-out: TR-β Fold Induction w.r.t T3(100 nm); for fold induction at 0.01 µM: Conc. 10 nM; for fold induction at 0.1 µM: Conc. 100 nM; for fold induction at 1 µM: Conc. 1000 nM
T2 sequence (P10828 1-461): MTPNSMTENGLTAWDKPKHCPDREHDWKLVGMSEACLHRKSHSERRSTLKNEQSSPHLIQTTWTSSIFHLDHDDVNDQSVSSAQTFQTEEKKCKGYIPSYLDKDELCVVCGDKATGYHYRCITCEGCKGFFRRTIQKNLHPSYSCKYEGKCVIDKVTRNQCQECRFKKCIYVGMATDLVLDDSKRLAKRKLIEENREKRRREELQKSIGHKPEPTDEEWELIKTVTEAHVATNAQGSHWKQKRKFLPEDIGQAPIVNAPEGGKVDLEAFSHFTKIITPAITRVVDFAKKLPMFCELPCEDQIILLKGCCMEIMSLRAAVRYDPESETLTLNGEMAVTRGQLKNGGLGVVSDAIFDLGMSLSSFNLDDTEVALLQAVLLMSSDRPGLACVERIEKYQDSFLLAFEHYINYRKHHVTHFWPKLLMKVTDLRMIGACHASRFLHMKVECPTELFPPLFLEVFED
Protocol: as §1

| SMILES | TR-α Fold Induction w.r.t T3(100 nm) ([1]; Conc. 1 nM) | TR-α Fold Induction w.r.t T3(100 nm) ([1]; Conc. 10 nM) | TR-α Fold Induction w.r.t T3(100 nm) ([1]; Conc. 100 nM) | TR-α Fold Induction w.r.t T3(100 nm) ([1]; Conc. 1000 nM) | fold induction at 0.001 µM [2] | fold induction at 0.01 µM [2] | fold induction at 0.1 µM [2] | fold induction at 1 µM [2] | EC50 [1] [µM] | EC50 [2] [µM] |
| --- | --- | --- | --- | --- | --- | --- | --- | --- | --- | --- |
| CC(C)(C)c1cc(Oc2c(Cl)cc(N(CC(=O)O)CC(=O)O)cc2Cl)ccc1O [Example 34, {[4-(3-tert-Butyl-4-hydroxy-phenoxy)-3,5-dichloro-phenyl]-carboxymethyl-amino}-acetic acid] | 12.66 | 26.23 | 62.95 | 53.76 | 8.37 | 21.3 | 51.1 | 55.7 |  |  |
| CC(C)(C)c1cc(Oc2c(Cl)cc(N(CC(=O)O)C(=O)Oc3ccc(O)cc3)cc2Cl)ccc1O [Example 35, [[4-(3-tert-Butyl-4-hydroxy-phenoxy)-3,5-dichloro-phenyl]-(4-hydroxy-phenoxycarbonyl)-amino]-acetic acid] | 25.40 | 106.00 | 130.68 | 72.06 | 22.4 | 80.5 | 125 | 81.3 |  |  |
| Cc1cc(N(CC(=O)O)CC(=O)O)cc(C)c1Oc1ccc(O)c(C(C)C)c1 [Example 37, {Carboxymethyl-[4-(4-hydroxy-3-isopropyl-phenoxy)-3,5-dimethyl-phenyl]-amino}-acetic acid] | 14.93 | 40.84 | 71.78 | 63.71 | 21.2 | 66.7 | 125 | 95.6 |  |  |
| CN(C)S(=O)(=O)c1cc(Oc2c(Cl)cc(N(CC(=O)O)C(=O)Oc3ccc(O)cc3)cc2Cl)ccc1O [Example 38, [[3,5-Dichloro-4-(3-dimethylsulfamoyl-4-hydroxy-phenoxy)-phenyl]-(4-hydroxy-phenoxycarbonyl)-amino]-acetic acid] | 09.36 | 13.61 | 25.32 | 41.59 | 12.3 | 16.9 | 43.5 | 81.4 |  |  |
| O=C(O)CN(C(=O)Oc1ccc(O)cc1)c1cc(Cl)c(Oc2ccc(O)c(S(=O)(=O)N3CCCCC3)c2)c(Cl)c1 [Example 41, [{3,5-Dichloro-4-[4-hydroxy-3-(piperidine-1-sulfonyl)-phenoxy]-phenyl}-(4-hydroxy-phenoxycarbonyl)-amino]-acetic acid] | 20.78 | 56.19 | 99.00 | 78.50 | 23.3 | 73.5 | 90 | 67 |  |  |
| Cc1cc(N(CC(=O)O)C(=O)Oc2ccc(O)cc2)cc(C)c1Oc1ccc(O)c(C(C)C)c1 [Example 42, [[4-(4-Hydroxy-3-isopropyl-phenoxy)-3,5-dimethyl-phenyl]-(4-hydroxy-phenoxycarbonyl)-amino]-acetic acid] | 11.05 | 26.63 | 72.96 | 80.89 | 12.9 | 41.4 | 91.9 | 86 |  |  |
| O=C(O)CN(C(=O)Oc1ccc(O)cc1)c1cc(Cl)c(Oc2ccc(O)c(C(=O)c3ccc(Cl)cc3)c2)c(Cl)c1 [Example 44, [{3,5-Dichloro-4-[3-(4-chloro-benzoyl)-4-hydroxy-phenoxy]-phenyl}-(4-hydroxy-phenoxycarbonyl)-amino]-acetic acid] |  |  |  |  |  |  |  |  | 0.0848 | 0.0148 |
| CC(C)NS(=O)(=O)c1cc(Oc2c(Cl)cc(N(CC(=O)O)C(=O)Oc3ccc(O)cc3)cc2Cl)ccc1O [Example 45, [[3,5-Dichloro-4-(4-hydroxy-3-isopropylsulfamoyl-phenoxy)-phenyl]-(4-hydroxy-phenoxycarbonyl)-amino]-acetic acid] | 10.48 | 12.02 | 23.05 | 50.62 | 13.5 | 18.7 | 47.1 | 88.9 |  |  |
| O=C(O)CN(C(=O)Oc1ccc(O)cc1)c1cc(Cl)c(Oc2ccc(O)c(C(=O)c3cccc(Cl)c3)c2)c(Cl)c1 [Example 47, [{3,5-Dichloro-4-[3-(3-chloro-benzoyl)-4-hydroxy-phenoxy]-phenyl}-(4-hydroxy-phenoxycarbonyl)-amino]-acetic acid] |  |  |  |  |  |  |  |  | 0.0164 | 0.0113 |
| CCc1cc(Oc2c(Cl)cc(N(CC(=O)O)C(=O)Oc3ccc(O)cc3)cc2Cl)ccc1O [Example 48, [[3,5-Dichloro-4-(3-ethyl-4-hydroxy-phenoxy)-phenyl]-(4-hydroxy-phenoxycarbonyl)-amino]-acetic acid] | 08.16 | 17.51 | 34.61 | 45.08 | 9.02 | 19.4 | 47.7 | 37.6 |  |  |
| O=C(O)CN(C(=O)Oc1ccc(O)cc1)c1cc(Cl)c(Oc2ccc(O)c(-c3ccccc3)c2)c(Cl)c1 [Example 49, [[3,5-Dichloro-4-(6-hydroxy-biphenyl-3-yloxy)-phenyl]-(4-hydroxy-phenoxycarbonyl)-amino]-acetic acid] |  |  |  |  |  |  |  |  | 0.038 | 0.0103 |
| O=C(O)CN(C(=O)Oc1ccc(O)cc1)c1cc(Cl)c(Oc2ccc(O)c(Cc3ccccc3)c2)c(Cl)c1 [Example 50, [[4-(3-Benzyl-4-hydroxy-phenoxy)-3,5-dichloro-phenyl]-(4-hydroxy-phenoxycarbonyl)-amino]-acetic acid] |  |  |  |  |  |  |  |  | 0.0233 | 0.0062 |
| O=C(O)CN(C(=O)Oc1ccc(O)cc1)c1cc(Cl)c(Oc2ccc(O)c(S(=O)(=O)NC3CCC3)c2)c(Cl)c1 [Example 51, [[3,5-Dichloro-4-(3-cyclobutylsulfamoyl-4-hydroxy-phenoxy)-phenyl]-(4-hydroxy-phenoxycarbonyl)-amino]-acetic acid] | 08.05 | 14.43 | 32.52 | 83.34 | 8.68 | 17 | 54.6 | 102 |  |  |
| O=C(O)CN(C(=O)Oc1ccc(O)cc1)c1cc(Br)c(Oc2ccc(O)c(S(=O)(=O)NC3CC4CCC3C4)c2)c(Br)c1 (stereo not shown) [Example 53, [{4-[3-(Bicyclo[2.2.1]hept-2-ylsulfamoyl)-4-hydroxy-phenoxy]-3,5-dibromo-phenyl}-(4-hydroxy-phenoxycarbonyl)-amino]-acetic acid] | 11.19 | 12.00 | 17.15 | 50.30 | 11 | 12.9 | 27 | 91.7 |  |  |
